Data taken from EP0508425A1, “Bicyclic amides as inhibitors of acyl-coenzyme a: cholesterol acyl transferase” (SCHERING CORPORATION, priority 1991, dated 1992).

What was measured:
Hyperlipidemic Hamster = assay: In Vivo Assay of Hypolipidemic Agents Using the Hyperlipidemic Hamster; design: species or system Hamsters; conditions: oral gavage once daily, seven days, versus control
Procedure: In Vivo Assay of Hypolipidemic Agents Using the Hyperlipidemic Hamster
Hamsters are separated into groups of six and given a control cholesterol diet (Purina Chow #5001 containing 0.5% cholesterol) for seven days. Diet consumption is monitored to determine dietary cholesterol exposure in the face of test compounds. The animals are dosed with the test compound once daily beginning with the initiaton of diet. Dosing is by oral gavage of 0.2 mL of corn oil alone (control group) or solution (or suspension) of test compound in corn oil. All animals moribund or in poor physical condition are euthanized. After seven days, the animals are anesthetized by IM injection of ketamine and sacrificed by decapitation. Blood is collected into vacutainer tubes containing EDTA for plasma lipid analysis and the liver excised for tissue lipid analysis. Data is reported as percent reduction of lipid versus control.

ACAT = ACAT Assay (in vitro); assay type: biochemical; conditions: 10 µM test compound; rat liver microsomes
Procedure: This assay measures the activity of ACAT by measuring the ACAT-mediated transfer of tritiated oleic acid from acyl-CoA to cholesterol to give labelled cholesterol oleate. Rat liver microsomes are used as the source of ACAT. Assays are performed in round bottom microtiterplates using a total incubation volume of 50 µL. Each incubation well receives 10 µl assay buffer (0.5M KHPO₄, 10 µM dithiothreitol, pH 7.4), 7.5 µL of 40 mg/mL BSA (Bovine Serum Albumin) and 12.5 µg of microsomal protein. The test compound (in sufficient amount to bring the final concentration to from 0.1 to 25 µM), reference compound, or vehicle control is added and the final volume brought to 47 µL. The microtiterplate is then floated on the surface of a 37°C water bath for fifteen minutes. Incubations are started by the addition of 3 µL ³H-acyl CoA (1µCi/well, final concentration of 10 µM acyl CoA). The plate is then returned to the water bath for 15 minutes. The incubations are then terminated by application of 15 µL from each incubation to individual lanes on a thin layer plate (Silica Gel GF 20 x 20 cm). Standards are applied to several lanes so that the cholesterol ester band can be identified. After drying, the plates are eluted with 90:10:1 petroleum ether:ether:HOAc. The standards are visualized via iodine vapor, and the regions corresponding to cholesterol ester are scraped into 7 mL scintillation vials. 4 mL of scintillant are added to each vial, and the radioactivity quantified. Background count is determined by the boiled controls. Full activity is determined by activity in the presence of vehicle. The percent inhibition is calculated by subtracting the background from both control and test samples, and the test value is calculated as a percentage of the control. For IC₅₀ determinations, the inhibition is plotted against drug doses on a log scale and the concentration at which 50% inhibition is obtained is determined.

SMILES	% Reduction in cholesteryl esters (dose in mpk) (Hyperlipidemic Hamster; dose 50 mpk)	ACAT % Inhibition dose = 10 µM (ACAT)	% Reduction in cholesteryl esters (dose in mpk) (Hyperlipidemic Hamster; dose 10 mpk)	% Reduction in cholesteryl esters (dose in mpk) (Hyperlipidemic Hamster; dose 25 mpk)
COc1ccc([C@H]2CCc3ccccc3[C@H]2NC(=O)C(c2ccccc2)c2ccccc2)cc1 (relative stereo) [Example 1, cis-N-[-2-(4'-methoxyphenyl)-1,2,3,4-tetrahydronaphthalen-1-yl]-α-phenylbenzeneacetamide]	0 (50) %	–	–	–
COc1ccc([C@H]2Cc3ccccc3[C@H]2NC(=O)C(c2ccccc2)c2ccccc2)cc1 (relative stereo) [Example 2, cis-N-[2-(4'-methoxyphenyl)indanyl]-α-phenylbenzeneacetamide]	-17 (50) %	96%	–	–
O=C(N[C@@H]1c2ccccc2C[C@@H]1c1ccc(O)cc1)C(c1ccccc1)c1ccccc1 (relative stereo) [Example 3, cis-N-[2-(4'-hydroxyphenyl)indanyl]-α-phenylbenzeneacetamide]	-89%	99%	-71%	-87.5%
CCCCCCCC/C=C\CCCCCCCC(=O)N[C@@H]1c2ccccc2CC[C@H]1c1ccc(O)cc1 (relative stereo) [Example 4, trans-N-[2-(4'-hydroxyphenyl)-1,2,3,4-tetrahydronaphth-1-yl]oleamide]	0 (50) %	94%	–	–
Nc1ccc([C@@H]2Cc3ccccc3[C@H]2NC(=O)C(c2ccccc2)c2ccccc2)cc1 (relative stereo) [Example 5, trans-N-[2-(4'-aminophenyl)indanyl]-α-phenylbenzeneacetamide]	–	94%	–	–
Nc1cccc([C@H]2Cc3ccccc3[C@H]2NC(=O)C(c2ccccc2)c2ccccc2)c1 (relative stereo) [Example 5A, cis-N-[2-(3'-aminophenyl)-indanyl]-α-phenylbenzeneacetamide]	–	95%	0 (10) %	–
COc1ccc([C@@H]2CCc3ccccc3[C@H]2NC(=O)N(c2ccccc2)c2ccccc2)cc1 (relative stereo) [Example 6, trans-N'-[2-(4'-methoxyphenyl)-1,2,3,4-tetrahydronaphthalen-1-yl]-N,N-diphenylurea]	-16 (50) %	97%	–	–
O=C(N[C@@H]1c2ccccc2C[C@@H]1c1ccc(O)c(Br)c1)C(c1ccccc1)c1ccccc1 (relative stereo) [Example 7, (+)-cis-N-[2-(3'-bromo-4'-hydroxyphenyl)indanyl]-α-phenylbenzeneacetamide]	-40 (50) %	100%	–	–
O=C(N[C@@H]1c2ccccc2C[C@@H]1c1ccc(O)c(Cl)c1)C(c1ccccc1)c1ccccc1 (relative stereo) [Example 8, cis-N-[2-(3'-chloro-4'-hydroxyphenyl)-indanyl]-α-phenylbenzeneacetamide]	-40 (50) %	99%	–	–
O=C(N[C@@H]1c2ccccc2C[C@@H]1c1cc(Cl)c(O)c(Cl)c1)C(c1ccccc1)c1ccccc1 (relative stereo) [Example 8A, cis-N-[2-(3',5'-dichloro-4'-hydroxyphenyl)indanyl]-α-phenylbenzeneacetamide]	-14 (50) %	99%	–	–
Cc1cc([C@H]2Cc3ccccc3[C@H]2NC(=O)C(c2ccccc2)c2ccccc2)ccc1O (relative stereo) [Example 9, (+)-cis-N-[2-[4'-hydroxy-3'-methylphenyl)indanyl]-α-phenylbenzeneacetamide]	-66 (50) %	98%	–	–
Cc1cc([C@H]2Cc3ccccc3[C@H]2NC(=O)C(c2ccccc2)c2ccccc2)cc(C)c1O (relative stereo) [Example 9A, (+)-cis-N-[2-(3',5'-dimethyl-4'-hydroxyphenyl)indanyl]-α-phenylbenzeneacetamide]	-60 (50) %	97%	–	–
